According to patent publication US9005963B2, “Amino acid sequences directed against cellular receptors for viruses and bacteria” (Ablynx N.V., priority 2008, dated 2015):
≈ marks a conversion by molar mass, not a printed value. Marks after values point to notes of the source that are not given here. Each block holds one molecule with its values, some of them ahead of it.

Assays:
[1] = system: X4 HIV-1 NL4.3; assay: HIV-1 infection assay MT-4/NL4.3 (cytopathic effect, MTS); type: cell-based; conditions: Human immunodeficiency virus 1; MT-4/NL4.3 exp. 1
[2] = system: X4 HIV-1 NL4.3; assay: HIV-1 infection assay PBMC/NL4.3 (p24 Ag ELISA); type: cell-based; conditions: Human immunodeficiency virus 1, PBMC
Protocol: (§1) The CXCR4-using (X4) HIV-1 molecular clone NL4.3 was obtained from the National Institutes of Health NIAID AIDS Reagent program (Bethesda, Md.), the CCR5-using (R5) HIV-1 strain BaL was obtained from the Medical Research Council AIDS reagent project (Herts, UK). […] The MT-4 cells were seeded out in 96-well plate and the U87 cells in 24-well plates. The test compounds were added at different concentrations together with HIV-1 and the plates were maintained at 37° C. in 10% CO2. Cytopathic effect induced by the virus was monitored by daily microscopic evaluation of the virus-infected cell cultures. […] The absorbance was then measured spectrophotometrically at 490 nm with a 96-well plate reader (Molecular Devices, Sunnyvale, Calif.) and compared with four cell control replicates (cells without virus and drugs) and four virus control wells (virus-infected cells without drugs).
(§2) Peripheral blood mononuclear cells (PBMCs) from healthy donors were isolated by density centrifugation (Lymphoprep; Nycomed Pharma, AS Diagnostics, Oslo, Norway) and stimulated with phytohemagglutin (PHA) (Sigma Chemical Co., Bornem Belgium) for 3 days. The activated cells (PHA-stimulated blasts) were washed with PBS and viral infections were performed as described previously (Schols D, Struyf S, Van Damme J, Este J A, Henson G, De Clercq E. Inhibition of T-tropic HIV strains by selective antagonization of the chemokine receptor CXCR4. J Exp Med 1997; 186:1383-1388). At 8-10 days after the start of the infection, viral p24 Ag was detected in the culture supernatant by an enzyme-linked immunosorbent assay (Perkin Elmer, Brussels, Belgium).
(§3) The anti-HIV-1 potencies of NANOBODIES on the X4 HIV-1 clone NL4.3 or primary virus strains UG270 (X4, Clade D), CI#17 (X4, clade B), the R5 HIV-1 strain BaL or the R5/X4 HIV-1 HE strain in MT-4, U87.CD4.CXCR4, U87.CD4.CCR5 and/or phytohemagglutin-stimulated PBMCs from different donors were determined by measuring the cytopathic effect of HIV-1 (in MT-4 and U87 cell lines) microscopically and by tetrazolium-based colorimetric evaluation or by quantification of the viral p24 antigen production in the culture supernatant (PBMCs) as described in detail. Primary virus strains were grown 1 or 2 times in PBMC only.
Peripheral blood mononuclear cells (PBMCs) from healthy donors were isolated by density centrifugation (Lymphoprep; Nycomed Pharma, AS Diagnostics, Oslo, Norway) and stimulated with phytohemagglutin for 3 days. […] At 8-10 days after the start of the infection, viral p24 Ag was detected in the culture supernatant by an enzyme-linked immunosorbent assay (Perkin Elmer, Brussels, Belgium).

[3] = system: HIV-1 UG270 (X4, Clade D); assay: HIV-1 infection assay PBMC/primary isolate UG270 (p24 Ag ELISA); type: cell-based; conditions: Human immunodeficiency virus 1, PBMC
Protocol: as §3
as §2, with “phytohemagglutin” for “phytohemagglutin (PHA) (Sigma Chemical Co., Bornem Belgium)”, “cells” for “cells (PHA-stimulated blasts)”, “et al. (1997)” for “Struyf S, Van Damme J, Este J A, Henson G, De Clercq E.”, “Med” for “Med 1997;”

[4] = system: HIV-1 CI#17 (X4, clade B); assay: HIV-1 infection assay PBMC/primary isolate CI#17 (p24 Ag ELISA); type: cell-based; conditions: Human immunodeficiency virus 1, PBMC
Protocol: as §3
as §2, with “phytohemagglutin” for “phytohemagglutin (PHA) (Sigma Chemical Co., Bornem Belgium)”, “cells” for “cells (PHA-stimulated blasts)”, “et al. (1997)” for “Struyf S, Van Damme J, Este J A, Henson G, De Clercq E.”, “Med” for “Med 1997;”

[5] = target: T1, CXCR4 (Homo sapiens, UniProt P61073); conditions: 3 μM; control experiment; membranes from HEK293T cells transiently expressing CXCR4
T1 sequence (P61073 whole entry): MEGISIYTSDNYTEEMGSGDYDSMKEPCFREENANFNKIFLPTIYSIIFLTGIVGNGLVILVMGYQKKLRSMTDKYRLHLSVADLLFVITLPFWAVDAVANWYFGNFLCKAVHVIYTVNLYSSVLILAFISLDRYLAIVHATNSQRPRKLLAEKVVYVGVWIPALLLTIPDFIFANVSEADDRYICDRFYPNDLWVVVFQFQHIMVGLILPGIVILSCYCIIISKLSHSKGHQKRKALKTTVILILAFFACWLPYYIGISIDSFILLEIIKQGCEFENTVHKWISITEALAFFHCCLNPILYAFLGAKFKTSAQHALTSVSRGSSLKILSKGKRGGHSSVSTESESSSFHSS

[6] = target: T1, CXCR4; assay: Competition binding with [125I]-CXCL12 on membranes from HEK293T cells transiently expressing CXCR4; set-up: expressed in transfected cells; host or cells: HEK293T, transient (pcDNA3.1-CXCR4); displacement of specifically bound [125I]-CXCL12 (in words): dose or concentration left out as unconfirmed; conditions: for Displacem. (%) of [125I]-CXCL12: maximal displacement, a: no significant displacement at 0.5 μM, b/c(B-6): maximum not reached, displacement at 0.5 μM; for pKi ([125I]-CXCL12): HEK293T-CXCR4 membranes; for Rel. potency, relative to monovalent 238D2: [125I]-CXCL12 displacement affinity, fold
Protocol: (§4) Membranes from HEK293T cells transiently expressing CXCR3 or CXCR4 were prepared 48 h after transfection as follows. Cells were washed and scraped from the cell culture dishes with ice-cold PBS containing 1 mm EDTA. The scraped cells were pelleted at 1500×g for 10 min at 4° C. The pellet was washed and then resuspended in ice-cold membrane buffer (15 mM Tris, pH 7.5, 1 mM EGTA, 0.3 mM EDTA, and 2 mM MgCl2). The cell suspension was homogenized by 10 strokes at 1200 rpm using a Teflon-glass homogenizer and rotor and further subjected to three freeze-thaw cycles using liquid nitrogen. Membranes were separated by centrifugation at 40,000 g for 25 min at 4° C. The membrane pellet was washed and resuspended in ice-cold Tris-sucrose buffer (20 mM Tris, pH 7.4, and 250 mM sucrose) and frozen in liquid nitrogen. The total protein was determined using a Bradford assay (Bio-Rad).
Membranes were then harvested over polyethylenimine (0.5%)-treated Whatman GF/C filter plates and washed three times with ice cold binding buffer containing 500 mM NaCl. Plates were counted by liquid scintillation. […]

[7] = target: T1, CXCR4; assay: Competition binding with [125I]-238D2 on membranes from HEK293T cells transiently expressing CXCR4; set-up: expressed in transfected cells; host or cells: HEK293T, transient (pcDNA3.1-CXCR4); conditions: for displacement of [125I]-238D2 (in words): 238C5 only at high concentrations (≧100 nM); for Displacem. (%) of [125I]-238D2: maximal displacement, a: no significant displacement at 0.5 μM, b: displacement at 0.5 μM
Protocol: as §4
(§5) Membranes were then harvested over polyethylenimine (0.5%)-treated Whatman GF/C filter plates and washed three times with ice cold binding buffer containing 500 mM NaCl. Plates were counted by liquid scintillation.

[8] = target: T1, CXCR4; assay: Competition binding with [125I]-238D4 on membranes from HEK293T cells transiently expressing CXCR4; set-up: expressed in transfected cells; host or cells: HEK293T, transient (pcDNA3.1-CXCR4); conditions: for displacement of [125I]-238D4 (in words): 238C5 only at high concentrations (≧100 nM); for Displacem. (%) of [125I]-238D4: maximal displacement, a: no significant displacement at 0.5 μM, b: displacement at 0.5 μM
Protocol: as §4, §5

[9] = system: R5 HIV-1 BaL; assay: HIV-1 infection assay PBMC/BaL (p24 Ag ELISA); type: cell-based
Protocol: as §1, §2, §3
as §2, with “phytohemagglutin” for “phytohemagglutin (PHA) (Sigma Chemical Co., Bornem Belgium)”, “cells” for “cells (PHA-stimulated blasts)”, “et al. (1997)” for “Struyf S, Van Damme J, Este J A, Henson G, De Clercq E.”, “Med” for “Med 1997;”

[10] = system: R5 HIV-1 BaL; assay: HIV-1 infection assay U87.CD4.CCR5/BaL (MTS); type: cell-based; conditions: read-out: Anti-HIV-1 activity (IC50)
[11] = target: T1, CXCR4; assay: Binding of 125I-labeled Nanobodies to membranes from HEK293T cells expressing CXCR4 compared to CXCR3; set-up: expressed in transfected cells; host or cells: HEK293T, transient (pcDNA3.1-CXCR4)
Protocol: as §4
Periplasmas (1:10) or ligands were pre-incubated with membranes in binding buffer (50 mM HEPES (pH 7.4), 1 mM CaCl2, 5 mM MgCl2, 100 mM NaCl, 0.5% bovine serum albumin) supplemented with 0.5% BSA for 1 h at 22° C. before the addition of [^125I]-CXCL12 (40 pM) or [^125I]-238D2 (3 nM) or [^125I]-238D4 (3 nM) for additional 2 h at 22° C. […] Plates were counted by liquid scintillation.

IC50 ([2]; PBMC + NL4.3 donor 1): 0.0011 µg/mL
IC90 ([2]; PBMC + NL4.3 donor 1): 0.0099 µg/mL
IC50 ([2]; PBMC + NL4.3 donor 2): > 0.04 µg/mL
IC90 ([2]; PBMC + NL4.3 donor 2): > 0.04 µg/mL
IC50 ([3]; PBMC + UG270 donor 1): 0.0036 µg/mL
IC90 ([3]; PBMC + UG270 donor 1): 0.0154 µg/mL
IC50 ([3]; PBMC + UG270 donor 2): 0.0179 µg/mL
IC90 ([3]; PBMC + UG270 donor 2): 0.0341 µg/mL
IC50 ([4]; PBMC + CI#17 donor 1): 0.0121 µg/mL
IC90 ([4]; PBMC + CI#17 donor 1): > 0.04 µg/mL
IC50 ([4]; PBMC + CI#17 donor 2): 0.0149 µg/mL
IC90 ([4]; PBMC + CI#17 donor 2): 0.0379 µg/mL
displacement of [125I]-CXCL12 [5]: full
Displacem. (%) of [125I]-CXCL12 [6]: 94 ± 2%
displacement of [125I]-238D2 (in words) [7]: displaced
Displacem. (%) of [125I]-238D2 [7]: 102 ± 1%
displacement of [125I]-238D4 (in words) [8]: displaced
Displacem. (%) of [125I]-238D4 [8]: 99 ± 4%
Molecule: c1cc(CN2CCCNCCNCCCNCC2)ccc1CN1CCCNCCNCCCNCC1 [AMD3100]
IC50 [1]: 0.0064 µg/mL (≈ 0.0127 µM)
IC90 [1]: > 0.04 µg/mL

Molecule: maraviroc
IC50 ([9]; PBMC + BaL donor 1): 0.0015 µg/mL
IC90 ([9]; PBMC + BaL donor 1): 0.0273 µg/mL
IC50 ([9]; PBMC + BaL donor 2): 0.0008 µg/mL
IC90 ([9]; PBMC + BaL donor 2): 0.0131 µg/mL
IC50 ([9]; read-out: Anti-HIV-1 activity (IC50), PBMC/BaL): 3.13 nM
IC50 [10]: 0.72 nM

pKi ([125I]-CXCL12) [6]: <7.00
Rel. potency, relative to monovalent 238D2 [6]: <0.1^a
Displacem. (%) of [125I]-CXCL12 [6]: 43 ± 11^c %
B1: 238D2-20GS-238B10: bivalent Nanobody, SEQ ID NO: 266 (protein)
chain: EVQLVESGGGLVQTGGSLRLSCAASGFTFSSYAMSWVRQAPGKGLEWVSGIKSSGDSTRYAGSVKGRFTISRDNAKNMLYLQMYSLKPEDTAVYYCAKSRVSRTGLYTYDNRGQGTQVTVSSGGGGSGGGGSGGGGSGGGGSEVQLVESGGGFVQAGGSLRLSCETSGRPLLGYTIAWFRQVPGKEREFVAYHRWSDGANLYADSVKGRFTISGHNAKNTVSLQMNSLKPEDTAVYYCAAARMTTSNDKEYLYWGQGTQVTVSS
modifications: Nanobodies

pKi ([125I]-CXCL12) [6]: <6.3
Displacem. (%) of [125I]-CXCL12 [6]: 0^a %
displacement of specifically bound [125I]-CXCL12 (in words) ([6]; purified Nanobodies): unable to displace
displacement of [125I]-238D2 (in words) [7]: unable to inhibit
pKi ([125I]-238D2) ([7]; HEK293T-CXCR4 membranes): <6.3
Displacem. (%) of [125I]-238D2 [7]: 0^a %
displacement of [125I]-238D4 (in words) [8]: unable to inhibit
pKi ([125I]-238D4) ([8]; HEK293T-CXCR4 membranes): <6.3
Displacem. (%) of [125I]-238D4 [8]: 0^a %
B2: 237D2: selected Nanobody, SEQ ID NO: 241 (protein)
VHH: EVQLVESGGGLVQPGGSLRLSCAASGFTFDDYAMSWVRQAPGKGLEWVSAISWNGGSTDYADSVKGRFTISRDNAKNTLYLQMNSLKSEDTAEYYCARDQGPFYSGTYYYTRQYGYRGQGTQVTVSS
modifications: Nanobodies

pKi ([125I]-CXCL12) [6]: 7.35 ± 0.07
Rel. potency, relative to monovalent 238D2 [6]: 0.18^a
Displacem. (%) of [125I]-CXCL12 [6]: 110 ± 2%
B3: 238D2-20GS-238C5: bivalent Nanobody, SEQ ID NO: 265 (protein)
chain: EVQLVESGGGLVQTGGSLRLSCAASGFTFSSYAMSWVRQAPGKGLEWVSGIKSSGDSTRYAGSVKGRFTISRDNAKNMLYLQMYSLKPEDTAVYYCAKSRVSRTGLYTYDNRGQGTQVTVSSGGGGSGGGGSGGGGSGGGGSEVQLMESGGGLVQAGGSLRLACAASGFTFEDYAIGWFRKAPGKEREGVSCISGSDGSTTYADSVKGRFTISTDNAKNTVYLEMNSLKPEDTAVYYCAQQYGVGGRVVCPGPYEYDVWGQGTQVTVSS
modifications: Nanobodies

binding to CXCR4 membranes compared to CXCR3 membranes [11]: selectively bound
B4: [^125I]-238D4: 125I-labeled NANOBODY 238D4 for competition binding studies (protein)
VHH: EVQLMESGGGLVQAGGSLRLSCAASGRTFNNYAMGWFRRAPGKEREFVAAITRSGVRSGVSAIYGDSVKDRFTISRDNAKNTLYLQMNSLKPEDTAVYTCAASAIGSGALRRFEYDYSGQGTQVTVSS

binding to CXCR4 membranes compared to CXCR3 membranes [11]: selectively bound
B5: [^125I]-238D2: 125I-labeled NANOBODY 238D2 for competition binding studies (protein)
VHH: EVQLVESGGGLVQTGGSLRLSCAASGFTFSSYAMSWVRQAPGKGLEWVSGIKSSGDSTRYAGSVKGRFTISRDNAKNMLYLQMYSLKPEDTAVYYCAKSRVSRTGLYTYDNRGQGTQVTVSS
